Entries after “also recorded” stand apart in the source; their conditions may differ.
What was measured:
[1] = Stability test of crystal forms spread flat in the air under lighting, heating and high humidity (HPLC purity, XRPD); format: physicochemical; conditions: for purity as detected by HPLC, 40° C.: heating 40° C.; for purity as detected by HPLC, 40° C. / purity as detected by HPLC, 60° C. / purity as detected by HPLC, RH 75% / purity as detected by HPLC, RH 90% / purity as detected by HPLC, Lighting: spread flat in the air; for purity as detected by HPLC, 60° C.: heating 60° C.; for purity as detected by HPLC, RH 75%: high humidity RH 75%; for purity as detected by HPLC, RH 90%: high humidity RH 90%; for purity as detected by HPLC, Lighting: lighting (4500 Lux)
Protocol: The product sample of crystal form I prepared in Example 1 and the product samples of crystal forms A, B, C and D prepared in Examples 12, 13, 14 and 15 were spread flat in the air to test sample stability under conditions of lighting (4500 Lux), heating (40° C., 60° C.), and high humidity (RH 75%, RH 90%). Samplings were carried out on Day 5 and Day 10.

[2] = Special stability study of crystal form I (grinding, heating, tableting; XRPD and DSC); format: physicochemical
Protocol: 1. Differential Scanning Calorimeter, DSC
Instrument type: Mettler Toledo DSC 1 STAR^e System
Heating rate: 10.0° C./min
Temperature range: 40-300° C.
2. X-Ray Powder Diffraction, XRPD
Instrument type: Bruker D8 Focus X-ray powder diffractometer
Ray: monochromatic Cu-Kα ray (λ=1.5406)
Scanning mode: θ/2θ, Scanning range: 2-40°
Voltage: 40 kV, Electric current: 40 mA
The sample of crystal form I of the compound of formula (I) prepared according to the method of Example 1 was ground, heated and tableted.

purity as detected by HPLC, 40° C. ([1]; Day 0) [%]	purity as detected by HPLC, 40° C. ([1]; Day 5) [%]	purity as detected by HPLC, 40° C. ([1]; Day 10) [%]	purity as detected by HPLC, 60° C. ([1]; Day 0) [%]	purity as detected by HPLC, 60° C. ([1]; Day 5) [%]	purity as detected by HPLC, 60° C. ([1]; Day 10) [%]	purity as detected by HPLC, RH 75% ([1]; Day 0) [%]	purity as detected by HPLC, RH 75% ([1]; Day 5) [%]	purity as detected by HPLC, RH 75% ([1]; Day 10) [%]	purity as detected by HPLC, RH 90% ([1]; Day 0) [%]	purity as detected by HPLC, RH 90% ([1]; Day 5) [%]	purity as detected by HPLC, RH 90% ([1]; Day 10) [%]	purity as detected by HPLC, Lighting ([1]; Day 0) [%]	purity as detected by HPLC, Lighting ([1]; Day 5) [%]	purity as detected by HPLC, Lighting ([1]; Day 10) [%]	Structure (SMILES)	also measured
99.69	99.45	99.03	99.69	99.45	99.34	99.69	99.52	99.34	99.69	99.47	99.34	99.69	99.39	99.19	CONC(=O)Nc1ccc(-n2nc3c(c2CN(C)C)c(=O)n(-c2ccc(OC)nn2)c(=O)n3Cc2c(F)cccc2F)cc1 [Crystal form B, 1-(4-(7-(2,6-Difluorobenzyl)-3-((dimethylamino)methyl)-5-(6-methoxypyridazin-3-yl)-4,6-dioxo-4,5,6,7-tetrahydro-2H-pyrazolo[3,4-d]pyrimidin-2-yl)phenyl)-3-methoxy urea]	–
99.75	99.57	99.35	99.75	99.53	99.47	99.75	99.51	99.48	99.75	99.54	99.38	99.75	98.30	96.83	CONC(=O)Nc1ccc(-n2nc3c(c2CN(C)C)c(=O)n(-c2ccc(OC)nn2)c(=O)n3Cc2c(F)cccc2F)cc1 [Crystal form C, 1-(4-(7-(2,6-Difluorobenzyl)-3-((dimethylamino)methyl)-5-(6-methoxypyridazin-3-yl)-4,6-dioxo-4,5,6,7-tetrahydro-2H-pyrazolo[3,4-d]pyrimidin-2-yl)phenyl)-3-methoxy urea]	–
99.36	99.33	99.41	99.36	99.24	99.30	99.36	99.22	99.31	99.36	99.27	99.27	99.36	99.26	99.20	CONC(=O)Nc1ccc(-n2nc3c(c2CN(C)C)c(=O)n(-c2ccc(OC)nn2)c(=O)n3Cc2c(F)cccc2F)cc1 [Crystal form I, 1-(4-(7-(2,6-difluorobenzyl)-3-((dimethylamino)methyl)-5-(6-methoxypyridazin-3-yl)-4,6-dioxo-4,5,6,7-tetrahydro-2H-pyrazolo[3,4-d]pyrimidin-2-yl)phenyl)-3-methoxyurea]	crystal form by XRPD test after exposure ([1]; lighting, high humidity and high temperature, spread in the air): not changed; also recorded: unchanged; stability compared with crystal forms A, B, C and D ([1]; lighting, high humidity and high temperature, decrease of HPLC purity): significantly better; DSC peak ([2]; after grinding treatment for 10 minutes): 166.16 °C; DSC peak ([2]; after heating treatment for 3 hours at 80° C.): 168.36 °C; DSC peak ([2]; after tableting treatment): 168.97 °C; crystal form during grinding, heating and tableting procedure ([2]; grinding, heating and tableting): not changed
99.67	99.44	99.31	99.67	99.48	99.40	99.67	99.57	99.34	99.67	99.57	99.39	99.67	99.43	99.22	CONC(=O)Nc1ccc(-n2nc3c(c2CN(C)C)c(=O)n(-c2ccc(OC)nn2)c(=O)n3Cc2c(F)cccc2F)cc1 [Crystal form D, 1-(4-(7-(2,6-Difluorobenzyl)-3-((dimethylamino)methyl)-5-(6-methoxypyridazin-3-yl)-4,6-dioxo-4,5,6,7-tetrahydro-2H-pyrazolo[3,4-d]pyrimidin-2-yl)phenyl)-3-methoxy urea]	–
97.86	97.50	97.52	97.86	97.62	97.50	97.86	97.61	97.65	97.86	97.59	97.79	97.86	97.27	97.13	CONC(=O)Nc1ccc(-n2nc3c(c2CN(C)C)c(=O)n(-c2ccc(OC)nn2)c(=O)n3Cc2c(F)cccc2F)cc1 [Crystal form A, 1-(4-(7-(2,6-Difluorobenzyl)-3-((dimethylamino)methyl)-5-(6-methoxypyridazin-3-yl)-4,6-dioxo-4,5,6,7-tetrahydro-2H-pyrazolo[3,4-d]pyrimidin-2-yl)phenyl)-3-methoxy urea]	–
